Test results: ChEMBL document CHEMBL4507302, “Data for DCP probe TP-020” (2021)

Experiments:
[1] = system: Tyrosine-protein kinase ABL1 (Homo sapiens), P00519 [M351T]; conditions: Compound concentration 1000.0 nM
[2] = system: Tyrosine-protein kinase ABL1 (Homo sapiens), P00519 [Y253F]; conditions: Compound concentration 1000.0 nM
[3] = target: 5'-AMP-activated protein kinase catalytic subunit alpha-2 (Homo sapiens) (UniProt P54646); conditions: Compound concentration 1000.0 nM
[4] = target: Calcium/calmodulin-dependent protein kinase type 1B (Homo sapiens) (UniProt Q6P2M8); conditions: Compound concentration 1000.0 nM
Sequence of Calcium/calmodulin-dependent protein kinase type 1B (Homo sapiens) (Q6P2M8 whole entry): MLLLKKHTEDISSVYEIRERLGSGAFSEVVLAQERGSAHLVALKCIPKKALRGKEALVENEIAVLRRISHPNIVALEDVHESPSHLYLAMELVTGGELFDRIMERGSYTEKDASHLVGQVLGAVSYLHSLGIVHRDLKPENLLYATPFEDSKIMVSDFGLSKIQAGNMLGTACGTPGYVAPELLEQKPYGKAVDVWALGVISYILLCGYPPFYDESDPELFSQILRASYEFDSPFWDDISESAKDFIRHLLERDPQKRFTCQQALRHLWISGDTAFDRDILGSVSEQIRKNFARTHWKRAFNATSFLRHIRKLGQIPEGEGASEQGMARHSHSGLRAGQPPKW

[5] = target: Calcium/calmodulin-dependent protein kinase type II subunit alpha (Homo sapiens) (UniProt Q9UQM7); conditions: Compound concentration 1000.0 nM
Sequence of Calcium/calmodulin-dependent protein kinase type II subunit alpha (Homo sapiens) (Q9UQM7 whole entry): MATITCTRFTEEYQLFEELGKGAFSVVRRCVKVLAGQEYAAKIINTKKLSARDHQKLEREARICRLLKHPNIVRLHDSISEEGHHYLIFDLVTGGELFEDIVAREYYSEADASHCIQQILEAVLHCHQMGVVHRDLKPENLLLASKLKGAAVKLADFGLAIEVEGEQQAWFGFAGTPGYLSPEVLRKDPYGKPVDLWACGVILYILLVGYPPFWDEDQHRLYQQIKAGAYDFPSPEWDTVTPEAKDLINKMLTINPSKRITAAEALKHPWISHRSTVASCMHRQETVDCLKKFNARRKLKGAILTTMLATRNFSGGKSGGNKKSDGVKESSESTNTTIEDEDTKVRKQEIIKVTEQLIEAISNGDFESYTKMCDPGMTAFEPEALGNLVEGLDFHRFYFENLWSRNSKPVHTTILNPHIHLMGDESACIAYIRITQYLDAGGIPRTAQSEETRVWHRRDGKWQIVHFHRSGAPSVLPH

[6] = target: Cyclin-dependent kinase 5 (Homo sapiens) (UniProt Q00535); conditions: Compound concentration 1000.0 nM
Sequence of Cyclin-dependent kinase 5 (Homo sapiens) (Q00535 whole entry, looked up, canonical isoform): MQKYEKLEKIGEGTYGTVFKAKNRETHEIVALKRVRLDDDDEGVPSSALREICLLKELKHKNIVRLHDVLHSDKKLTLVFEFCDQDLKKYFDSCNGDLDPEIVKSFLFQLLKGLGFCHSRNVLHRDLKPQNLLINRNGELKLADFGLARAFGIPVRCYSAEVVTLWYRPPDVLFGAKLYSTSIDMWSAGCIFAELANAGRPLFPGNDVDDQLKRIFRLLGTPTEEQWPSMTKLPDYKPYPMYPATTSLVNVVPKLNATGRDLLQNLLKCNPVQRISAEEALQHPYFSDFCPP

[7] = target: Casein kinase I isoform gamma-2 (Homo sapiens) (UniProt P78368); conditions: Compound concentration 1000.0 nM
Sequence of Casein kinase I isoform gamma-2 (Homo sapiens) (P78368 whole entry, looked up, canonical isoform): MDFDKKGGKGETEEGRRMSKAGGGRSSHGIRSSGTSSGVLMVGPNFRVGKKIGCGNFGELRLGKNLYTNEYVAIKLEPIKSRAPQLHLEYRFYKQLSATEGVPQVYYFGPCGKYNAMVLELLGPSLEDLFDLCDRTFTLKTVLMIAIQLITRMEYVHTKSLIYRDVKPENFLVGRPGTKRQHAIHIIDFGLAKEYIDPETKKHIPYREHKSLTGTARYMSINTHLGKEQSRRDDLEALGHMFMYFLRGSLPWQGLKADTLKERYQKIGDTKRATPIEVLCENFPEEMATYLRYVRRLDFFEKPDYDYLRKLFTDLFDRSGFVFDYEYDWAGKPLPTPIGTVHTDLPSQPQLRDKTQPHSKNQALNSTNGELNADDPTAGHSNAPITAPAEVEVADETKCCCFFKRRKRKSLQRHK

[8] = target: Death-associated protein kinase 3 (Homo sapiens) (UniProt O43293); conditions: Compound concentration 1000.0 nM
Sequence of Death-associated protein kinase 3 (Homo sapiens) (O43293 whole entry, looked up): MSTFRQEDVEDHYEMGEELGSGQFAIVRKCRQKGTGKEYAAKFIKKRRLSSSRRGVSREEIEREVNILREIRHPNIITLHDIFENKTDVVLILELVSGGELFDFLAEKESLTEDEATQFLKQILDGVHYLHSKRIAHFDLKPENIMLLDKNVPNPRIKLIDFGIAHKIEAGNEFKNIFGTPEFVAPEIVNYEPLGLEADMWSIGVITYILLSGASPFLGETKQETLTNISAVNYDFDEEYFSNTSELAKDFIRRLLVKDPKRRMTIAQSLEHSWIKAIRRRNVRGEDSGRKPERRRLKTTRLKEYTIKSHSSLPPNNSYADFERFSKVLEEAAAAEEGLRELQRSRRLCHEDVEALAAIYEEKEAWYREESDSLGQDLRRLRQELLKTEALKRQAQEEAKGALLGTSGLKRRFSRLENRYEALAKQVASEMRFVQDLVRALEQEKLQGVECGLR

[9] = target: Serine/threonine-protein kinase DCLK2 (Homo sapiens) (UniProt Q8N568); conditions: Compound concentration 1000.0 nM
Sequence of Serine/threonine-protein kinase DCLK2 (Homo sapiens) (Q8N568 whole entry): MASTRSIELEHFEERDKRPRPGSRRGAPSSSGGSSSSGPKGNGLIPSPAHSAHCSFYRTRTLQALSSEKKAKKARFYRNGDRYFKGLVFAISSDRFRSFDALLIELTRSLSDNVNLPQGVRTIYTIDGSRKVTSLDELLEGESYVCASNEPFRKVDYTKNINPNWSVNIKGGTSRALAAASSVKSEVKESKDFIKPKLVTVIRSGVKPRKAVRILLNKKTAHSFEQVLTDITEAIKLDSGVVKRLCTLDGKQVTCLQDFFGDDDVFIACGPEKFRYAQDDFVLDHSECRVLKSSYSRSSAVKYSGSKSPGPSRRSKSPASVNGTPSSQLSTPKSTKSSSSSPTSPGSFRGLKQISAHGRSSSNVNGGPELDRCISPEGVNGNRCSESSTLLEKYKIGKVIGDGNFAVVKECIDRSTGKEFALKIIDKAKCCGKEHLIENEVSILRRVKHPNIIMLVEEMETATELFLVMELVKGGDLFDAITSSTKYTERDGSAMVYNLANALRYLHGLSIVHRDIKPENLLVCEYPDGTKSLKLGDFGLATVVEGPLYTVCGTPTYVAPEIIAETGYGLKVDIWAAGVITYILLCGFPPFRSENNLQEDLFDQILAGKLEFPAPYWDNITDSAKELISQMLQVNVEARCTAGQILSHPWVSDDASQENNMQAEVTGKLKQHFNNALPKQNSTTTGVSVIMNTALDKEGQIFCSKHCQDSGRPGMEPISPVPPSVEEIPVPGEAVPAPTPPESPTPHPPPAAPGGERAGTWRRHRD

[10] = target: Dual specificity tyrosine-phosphorylation-regulated kinase 1B (Homo sapiens) (UniProt Q9Y463); conditions: Compound concentration 1000.0 nM
[11] = system: Epidermal growth factor receptor (Homo sapiens), P00533 [G719C]; conditions: Compound concentration 1000.0 nM
[12] = system: Epidermal growth factor receptor (Homo sapiens), P00533 [G719S]; conditions: Compound concentration 1000.0 nM
[13] = target: Receptor tyrosine-protein kinase erbB-4 (Homo sapiens) (UniProt Q15303); conditions: Compound concentration 1000.0 nM
[14] = target: Mitogen-activated protein kinase 6 (Homo sapiens) (UniProt Q16659); conditions: Compound concentration 1000.0 nM
[15] = system: Receptor-type tyrosine-protein kinase FLT3 (Homo sapiens), P36888 [K663Q]; conditions: Compound concentration 1000.0 nM
[16] = system: Receptor-type tyrosine-protein kinase FLT3 (Homo sapiens), P36888 [N841I]; conditions: Compound concentration 1000.0 nM
[17] = target: Tyrosine-protein kinase FRK (Homo sapiens) (UniProt P42685); conditions: Compound concentration 1000.0 nM
Sequence of Tyrosine-protein kinase FRK (Homo sapiens) (P42685 whole entry): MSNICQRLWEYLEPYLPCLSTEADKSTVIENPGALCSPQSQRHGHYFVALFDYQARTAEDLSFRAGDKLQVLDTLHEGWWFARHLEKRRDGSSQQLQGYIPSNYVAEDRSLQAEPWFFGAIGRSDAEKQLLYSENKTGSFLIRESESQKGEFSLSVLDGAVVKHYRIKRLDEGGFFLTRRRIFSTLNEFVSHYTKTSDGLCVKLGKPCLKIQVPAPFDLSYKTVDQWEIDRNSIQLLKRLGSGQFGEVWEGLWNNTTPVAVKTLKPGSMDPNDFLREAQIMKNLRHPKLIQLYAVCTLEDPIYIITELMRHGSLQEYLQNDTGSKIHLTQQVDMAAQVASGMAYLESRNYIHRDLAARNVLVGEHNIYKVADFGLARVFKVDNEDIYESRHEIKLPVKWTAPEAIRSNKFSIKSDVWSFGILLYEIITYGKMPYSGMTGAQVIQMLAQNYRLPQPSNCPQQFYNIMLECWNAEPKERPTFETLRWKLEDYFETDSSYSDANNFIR

[18] = target: Tyrosine-protein kinase Fyn (Homo sapiens) (UniProt P06241); conditions: Compound concentration 1000.0 nM
[19] = target: Serine/threonine-protein kinase STK11 (Homo sapiens) (UniProt Q15831); conditions: Compound concentration 1000.0 nM
[20] = target: Mitogen-activated protein kinase kinase kinase 15 (Homo sapiens) (UniProt Q6ZN16); conditions: Compound concentration 1000.0 nM
[21] = target: Mitogen-activated protein kinase kinase kinase kinase 4 (Homo sapiens) (UniProt O95819); conditions: Compound concentration 1000.0 nM
[22] = target: Mitogen-activated protein kinase kinase kinase kinase 5 (Homo sapiens) (UniProt Q9Y4K4); conditions: Compound concentration 1000.0 nM
[23] = target: Dual specificity mitogen-activated protein kinase kinase 6 (Homo sapiens) (UniProt P52564); conditions: Compound concentration 1000.0 nM
[24] = target: Misshapen-like kinase 1 (Homo sapiens) (UniProt Q8N4C8); conditions: Compound concentration 1000.0 nM
[25] = target: MAP kinase-interacting serine/threonine-protein kinase 1 (Homo sapiens) (UniProt Q9BUB5); conditions: Compound concentration 1000.0 nM
[26] = target: Mitogen-activated protein kinase kinase kinase 11 (Homo sapiens) (UniProt Q16584); conditions: Compound concentration 1000.0 nM
[27] = target: Myosin-IIIa (Homo sapiens) (UniProt Q8NEV4); conditions: Compound concentration 1000.0 nM
[28] = target: Serine/threonine-protein kinase 38 (Homo sapiens) (UniProt Q15208); conditions: Compound concentration 1000.0 nM
[29] = target: Cyclin-dependent kinase 14 (Homo sapiens) (UniProt O94921); conditions: Compound concentration 1000.0 nM
Sequence of Cyclin-dependent kinase 14 (Homo sapiens) (O94921 whole entry, canonical isoform): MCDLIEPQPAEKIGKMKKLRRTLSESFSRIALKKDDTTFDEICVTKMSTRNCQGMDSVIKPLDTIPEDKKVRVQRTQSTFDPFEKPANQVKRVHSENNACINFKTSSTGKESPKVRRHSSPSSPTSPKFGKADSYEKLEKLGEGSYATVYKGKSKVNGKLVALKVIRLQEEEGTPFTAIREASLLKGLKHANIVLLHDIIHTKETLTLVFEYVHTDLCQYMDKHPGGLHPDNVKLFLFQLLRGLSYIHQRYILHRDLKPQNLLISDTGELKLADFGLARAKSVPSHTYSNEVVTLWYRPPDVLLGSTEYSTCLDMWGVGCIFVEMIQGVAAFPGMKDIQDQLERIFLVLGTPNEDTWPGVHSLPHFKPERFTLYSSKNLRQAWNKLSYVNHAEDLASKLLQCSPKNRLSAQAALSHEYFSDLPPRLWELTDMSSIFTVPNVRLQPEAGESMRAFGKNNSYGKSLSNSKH

[30] = system: Phosphatidylinositol 4,5-bisphosphate 3-kinase catalytic subunit alpha isoform (Homo sapiens), P42336 [E545A]; conditions: Compound concentration 1000.0 nM
[31] = target: Phosphatidylinositol 4-kinase beta (Homo sapiens) (UniProt Q9UBF8); conditions: Compound concentration 1000.0 nM
[32] = target: Serine/threonine-protein kinase pim-2 (Homo sapiens) (UniProt Q9P1W9); conditions: Compound concentration 1000.0 nM
Sequence of Serine/threonine-protein kinase pim-2 (Homo sapiens) (Q9P1W9 whole entry, looked up): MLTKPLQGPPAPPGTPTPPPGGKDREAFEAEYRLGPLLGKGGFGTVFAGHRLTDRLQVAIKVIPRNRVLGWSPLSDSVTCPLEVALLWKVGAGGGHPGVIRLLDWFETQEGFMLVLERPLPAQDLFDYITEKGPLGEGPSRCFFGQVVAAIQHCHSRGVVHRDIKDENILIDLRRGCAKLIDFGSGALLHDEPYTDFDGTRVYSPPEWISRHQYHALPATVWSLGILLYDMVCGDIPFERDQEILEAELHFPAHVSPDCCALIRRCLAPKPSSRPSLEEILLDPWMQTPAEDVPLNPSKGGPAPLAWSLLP

[33] = target: Membrane-associated tyrosine- and threonine-specific cdc2-inhibitory kinase (Homo sapiens) (UniProt Q99640); conditions: Compound concentration 1000.0 nM
[34] = target: Serine/threonine-protein kinase D3 (Homo sapiens) (UniProt O94806); conditions: Compound concentration 1000.0 nM
[35] = target: Protein-tyrosine kinase 2-beta (Homo sapiens) (UniProt Q14289); conditions: Compound concentration 1000.0 nM
[36] = target: Receptor-interacting serine/threonine-protein kinase 2 (Homo sapiens) (UniProt O43353); conditions: Compound concentration 1000.0 nM
Sequence of Receptor-interacting serine/threonine-protein kinase 2 (Homo sapiens) (O43353 whole entry): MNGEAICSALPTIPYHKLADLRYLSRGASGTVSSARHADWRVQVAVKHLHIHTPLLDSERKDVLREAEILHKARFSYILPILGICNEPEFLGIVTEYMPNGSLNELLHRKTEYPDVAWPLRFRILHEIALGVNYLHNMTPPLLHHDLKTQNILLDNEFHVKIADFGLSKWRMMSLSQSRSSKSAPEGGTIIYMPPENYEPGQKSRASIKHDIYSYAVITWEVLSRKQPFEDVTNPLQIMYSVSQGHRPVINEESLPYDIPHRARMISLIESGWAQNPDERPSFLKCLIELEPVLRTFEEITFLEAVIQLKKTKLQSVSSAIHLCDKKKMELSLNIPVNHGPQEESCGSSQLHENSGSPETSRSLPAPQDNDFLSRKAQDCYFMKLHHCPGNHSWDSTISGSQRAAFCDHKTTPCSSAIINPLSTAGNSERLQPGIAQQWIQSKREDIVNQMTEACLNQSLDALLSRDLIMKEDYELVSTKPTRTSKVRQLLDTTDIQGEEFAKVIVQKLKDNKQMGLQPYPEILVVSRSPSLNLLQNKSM

[37] = target: Serine/threonine-protein kinase SIK1 (Homo sapiens) (UniProt P57059); conditions: Compound concentration 1000.0 nM
[38] = target: Serine/threonine-protein kinase 33 (Homo sapiens) (UniProt Q9BYT3); conditions: Compound concentration 1000.0 nM
[39] = target: Angiopoietin-1 receptor (Homo sapiens) (UniProt Q02763); conditions: Compound concentration 1000.0 nM
[40] = target: Non-receptor tyrosine-protein kinase TNK1 (Homo sapiens) (UniProt Q13470); conditions: Compound concentration 1000.0 nM
[41] = target: High affinity nerve growth factor receptor (Homo sapiens) (UniProt P04629); conditions: Compound concentration 1000.0 nM
[42] = target: Serine/threonine-protein kinase ULK3 (Homo sapiens) (UniProt Q6PHR2); conditions: Compound concentration 1000.0 nM
[43] = target: 5-hydroxytryptamine receptor 7 (Homo sapiens) (UniProt P34969); conditions: Compound concentration 10.0 uM
[44] = target: Sodium-dependent dopamine transporter (Homo sapiens) (UniProt Q01959); conditions: Compound concentration 10.0 uM
[45] = target: Mu-type opioid receptor (Homo sapiens) (UniProt P35372); conditions: Compound concentration 10.0 uM
Sequence of Mu-type opioid receptor (Homo sapiens) (P35372 whole entry): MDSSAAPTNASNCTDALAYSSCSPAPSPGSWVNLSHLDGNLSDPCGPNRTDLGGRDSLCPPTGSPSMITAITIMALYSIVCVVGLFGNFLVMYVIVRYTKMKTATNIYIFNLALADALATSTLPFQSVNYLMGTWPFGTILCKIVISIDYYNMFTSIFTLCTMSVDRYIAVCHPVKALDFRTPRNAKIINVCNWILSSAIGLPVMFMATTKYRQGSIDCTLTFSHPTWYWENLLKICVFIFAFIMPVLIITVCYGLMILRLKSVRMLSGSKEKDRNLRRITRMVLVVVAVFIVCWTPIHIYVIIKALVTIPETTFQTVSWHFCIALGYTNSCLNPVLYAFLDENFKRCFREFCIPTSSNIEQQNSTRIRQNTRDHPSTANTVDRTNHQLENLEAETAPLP

Nc1cnc(N2CCc3cc(S(=O)(=O)Nc4c(F)cc(Cl)cc4F)cc(N4CCCC4=O)c32)nc1
inactive: residual activity [1] 100% | residual activity [2] 94% | residual activity [3] 100% | residual activity [4] 67% | residual activity [5] 92% | residual activity [6] 100% | residual activity [7] 88% | residual activity [8] 83% | residual activity [9] 100% | residual activity [10] 100% | residual activity [11] 100% | residual activity [12] 75% | residual activity [13] 100% | residual activity [14] 100% | residual activity [15] 97% | residual activity [16] 89% | residual activity [17] 62% | residual activity [18] 58% | residual activity [19] 100% | residual activity [20] 100% | residual activity [21] 61% | residual activity [22] 73% | residual activity [23] 71% | residual activity [24] 100% | residual activity [25] 98% | residual activity [26] 100% | residual activity [27] 77% | residual activity [28] 99% | residual activity [29] 100% | residual activity [30] 100% | residual activity [31] 93% | residual activity [32] 85% | residual activity [33] 99% | residual activity [34] 88% | residual activity [35] 100% | residual activity [36] 53% | residual activity [37] 100% | residual activity [38] 80% | residual activity [39] 78% | residual activity [40] 100% | residual activity [41] 100% | residual activity [42] 100% | inhibition [43] 0.94% | inhibition [44] 20.2% | inhibition [45] -1.31%

Cn1nc(C(F)(F)F)cc1-c1cnc(N2CCc3cc(S(=O)(=O)Nc4c(F)cc(Cl)cc4F)cc(N4CCCC4=O)c32)nc1 [TP-020]
inactive: residual activity [1] 92% | residual activity [2] 95% | residual activity [3] 97% | residual activity [4] 80% | residual activity [5] 75% | residual activity [6] 100% | residual activity [7] 100% | residual activity [8] 97% | residual activity [9] 100% | residual activity [10] 100% | residual activity [11] 100% | residual activity [12] 100% | residual activity [13] 94% | residual activity [14] 100% | residual activity [15] 100% | residual activity [16] 94% | residual activity [17] 83% | residual activity [18] 94% | residual activity [19] 100% | residual activity [20] 81% | residual activity [21] 83% | residual activity [22] 88% | residual activity [23] 100% | residual activity [24] 99% | residual activity [25] 72% | residual activity [26] 100% | residual activity [27] 100% | residual activity [28] 97% | residual activity [29] 100% | residual activity [30] 84% | residual activity [31] 77% | residual activity [32] 100% | residual activity [33] 93% | residual activity [34] 100% | residual activity [35] 100% | residual activity [36] 82% | residual activity [37] 100% | residual activity [38] 100% | residual activity [39] 99% | residual activity [40] 100% | residual activity [41] 69% | residual activity [42] 100% | inhibition [43] 4.51% | inhibition [44] 14.5% | inhibition [45] 9.44%
